Results on two molecules are retold here after ChEMBL document CHEMBL1136040, “Specific accumulation and growth inhibitory effects of hybrid liposomes to hepatoma cells in vitro” (Bioorg Med Chem Lett, 2002).

Molecules are shown by their SMILES.

The subject of the test is HepG2. The test can be described thus: Compound was tested for its inhibition on growth of human hepatoma cells (Hep-G2); No inhibitory effects was observed. Format: functional, cell-based.

In the case of `CCCCCCCCCCCCCC(=O)OCC(COP(=O)([O-])OCC[N+](C)(C)C)OC(=O)CCCCCCCCCCCCC` (configuration not stated), the inhibition result was “No inhibition”.

In the case of `CCCCCCCCCCCCCC(=O)OCC(COP(=O)([O-])OCC[N+](C)(C)C)OC(=O)CCCCCCCCCCCNc1ccc([N+](=O)[O-])c2nonc12` (configuration not stated), the inhibition entry was “No inhibition”.
